We go through eleven molecules from PMC9784874, “Inhibitors of HIV-1 and Cathepsin L Proteases Identified from the Insect Gall of Hypericum kouytchense” (Pharmaceuticals, 2022).

Like-named read-outs stand apart in the source and are kept apart here.

For experiment [1], the system named is HIV replication in H9 lymphocytes. Also noted: method as in PMID 15987189. To be noted: cited from earlier work.
For another experiment, the target named is T1, HIV-1 PR (Human immunodeficiency virus type 1 group M subtype B, UniProt P04585).
T1 construct: 10.0, 4.0, 3.2 and 17.0 µg/mL against HIV-1 protease
Kind of experiment: Fluorimetric HIV-1 protease inhibition assay. Format: biochemical. As for the experimental part: (§1) The inhibitory activities against HIV-1, Cat L and Renin PRs were assayed by fluorimetric methods using our previously published protocols.

A further experiment has as its target Cat L PR (Homo sapiens, UniProt P07711). Kind of experiment: Fluorimetric cathepsin L protease inhibition assay. Format: biochemical. To be noted: read-out: Cat L PR Inhi% at 100.0 µg/mL. As for the experimental part:
as §1

A further experiment has as its target T2, human renin (Homo sapiens, UniProt P00797).
T2 sequence (P00797 67-406): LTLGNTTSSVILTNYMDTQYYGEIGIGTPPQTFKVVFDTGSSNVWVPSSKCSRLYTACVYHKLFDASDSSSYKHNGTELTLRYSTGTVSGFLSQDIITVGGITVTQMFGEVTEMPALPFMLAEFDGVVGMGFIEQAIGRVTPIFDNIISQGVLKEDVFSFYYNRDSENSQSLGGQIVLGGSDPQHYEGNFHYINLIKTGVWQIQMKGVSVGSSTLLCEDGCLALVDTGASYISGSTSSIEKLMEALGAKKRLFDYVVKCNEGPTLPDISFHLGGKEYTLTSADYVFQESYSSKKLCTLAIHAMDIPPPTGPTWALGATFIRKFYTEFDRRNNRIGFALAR
Kind of experiment: Fluorimetric renin protease inhibition assay. Format: biochemical. The following applies: extracts, n = 3. As for the experimental part:
as §1

[2] abbreviates: active compounds, n = 3, read-out: HIV-1 PR IC50 (converted).

Cat L PR, sequence (P07711 114-333): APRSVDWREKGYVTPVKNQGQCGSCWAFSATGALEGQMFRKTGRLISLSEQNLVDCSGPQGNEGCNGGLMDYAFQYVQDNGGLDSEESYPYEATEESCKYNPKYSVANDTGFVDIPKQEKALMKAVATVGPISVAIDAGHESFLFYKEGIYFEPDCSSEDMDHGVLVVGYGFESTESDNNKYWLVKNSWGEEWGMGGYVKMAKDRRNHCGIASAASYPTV

For the molecule `C=C[C@@]1(C)COC(=O)[C@]12O[C@]1(c3ccccc3)[C@H](C2=O)[C@H]2[C@H]([C@H](C)CCC=C(C)C)CC=C(C)[C@H]21` [Biyouyanagin A], the “therapeutic index (TI)” value in experiment [1] is reported as “higher than 31.3”.

Consider `Oc1cc(O)c2c(c1)O[C@H](c1ccc(O)c(O)c1)[C@H](O)C2` [Epicatechin], for which, on HIV-1 PR (n = 3), the “HIV-1 PR Inhi% at 1000.0 µg/mL” value is on record as 66.0 ± 3.79%. In addition, the IC50 at HIV-1 PR (setting [2]) is 2760 µM. On Cat L PR (100.0 µg/mL, n = 3), the inhibition at 100 µg/mL was -17.7 ± 2.35%.

For `O=C1C[C@@H](c2ccc(O)c(O)c2)Oc2cc(O)cc(O)c21` [Eriodictyol, Eriodicytiol], at HIV-1 PR, the IC50 was 659 µM. The “HIV-1 PR Inhi% at 1000.0 µg/mL” value on HIV-1 PR (n = 3) is reported as 100.0 ± 4.98%. For the same molecule, the inhibition at 100 µg/mL on Cat L PR (100.0 µg/mL, n = 3) was found to be 14.3 ± 2.32%.

For the molecule `Cc1cc(O)c2c(=O)c3c(O)cc(O)c4c5c(O)cc(O)c6c(=O)c7c(O)cc(C)c8c1c2c(c34)c(c78)c65` [Hypericin], the IC50 at HIV-1 PR is 3.57 µM. In addition, at HIV-1 PR (n = 3), the “HIV-1 PR Inhi% at 1000.0 µg/mL” value is reported as 100.0 ± 7.87%. At Cat L PR (100.0 µg/mL, n = 3), the inhibition at 100 µg/mL turned out to be 79.4 ± 2.02%.

Molecule `O=c1c(O[C@@H]2O[C@H](CO)[C@H](O)[C@H](O)[C@H]2O)c(-c2ccc(O)c(O)c2)oc2cc(O)cc(O)c12` [Hyperoside] had an IC50 against HIV-1 PR of 84 µM. Also, the “HIV-1 PR Inhi% at 1000.0 µg/mL” value on HIV-1 PR (n = 3) is listed as 72.6 ± 1.40%. On Cat L PR (100.0 µg/mL, n = 3), the inhibition at 100 µg/mL was 11.8 ± 2.56%.

In the case of `O=C(/C=C/c1ccc(O)cc1)c1c(O)cc(O)cc1O` [Naringenin chalcone], the “HIV-1 PR Inhi% at 1000.0 µg/mL” value on HIV-1 PR (n = 3) worked out at 100.0 ± 1.96%. Moreover, the half-inhibitory concentration (IC50) at HIV-1 PR (setting [2]) was 121 µM. Also, the inhibition at 100 µg/mL on Cat L PR (100.0 µg/mL, n = 3) was 22.2 ± 6.77%.

`O=c1c(O)c(-c2ccc(O)c(O)c2)oc2cc(O)cc(O)c12` [Quercetin]: the “HIV-1 PR Inhi% at 1000.0 µg/mL” value at HIV-1 PR (n = 3) worked out at 50.3 ± 1.40%. The inhibition at 100 µg/mL on Cat L PR (100.0 µg/mL, n = 3) is -3.67 ± 6.59%.

In the case of `C[C@@H]1O[C@@H](Oc2c(-c3ccc(O)c(O)c3)oc3cc(O)cc(O)c3c2=O)[C@H](O)[C@H](O)[C@H]1O` [Quercitrin], the “HIV-1 PR Inhi% at 1000.0 µg/mL” value on HIV-1 PR (n = 3) was found to be 94.4 ± 7.86%. Besides, at HIV-1 PR (setting [2]), the half-maximal inhibitory concentration (IC50) was 44.6 µM. For the same molecule, the inhibition at 100 µg/mL at Cat L PR was 16.3 ± 3.24%.

Consider `C[C@@H]1O[C@@H](OC[C@H]2O[C@@H](Oc3c(-c4ccc(O)c(O)c4)oc4cc(O)cc(O)c4c3=O)[C@H](O)[C@@H](O)[C@@H]2O)[C@H](O)[C@H](O)[C@H]1O` [Rutin], for which the “HIV-1 PR Inhi% at 1000.0 µg/mL” value on HIV-1 PR (n = 3) came to 24.8 ± 3.85%. The inhibition at 100 µg/mL on Cat L PR (100.0 µg/mL, n = 3) is -4.81 ± 3.8%.

Take `C[C@@H]1O[C@@H](Oc2cc(O)c3c(c2)O[C@H](c2ccc(O)c(O)c2)[C@@H](O)C3=O)[C@H](O)[C@H](O)[C@H]1O` [Taxifolin-7-O-rhamnoside]: on HIV-1 PR (n = 3), the “HIV-1 PR Inhi% at 1000.0 µg/mL” value amounted to 68.4 ± 5.45%. At HIV-1 PR (setting [2]), the IC50 is 1220 µM. In addition, the inhibition at 100 µg/mL on Cat L PR (100.0 µg/mL, n = 3) was found to be 18.1 ± 0.95%.

With Ac–HPFV–(Sta)–LF–NH2 [Renin inhibitor], the “IC50 Renin PR” value against human renin was determined as 0.9 µg/mL.

One may read the IC50 as the concentration that gives 50% inhibition.
